What was measured:
Assay type in all cases: in vivo
[1] = system: Italian ryegrass (Lolium multiflorum); assay: Test B pre-/postemergence plant response
Outline: (§1)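 Steps: plant seeds in loam soil–sand mix; spray soil preemergence, and in parallel spray 2–10 cm one- to two-leaf plants postemergence; hold ~10 days in greenhouse; visually rate injury against untreated controls (0 = no effect, 100 = complete control).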

[2] = system: kochia (Kochia scoparia); assay: Test B pre-/postemergence plant response
Outline: as §1

[3] = system: ragweed (common ragweed, Ambrosia elatior); assay: Test B pre-/postemergence plant response
Outline: as §1

[4] = system: Italian ryegrass (Lolium multiflorum); assay: Test D pre-/postemergence plant response; conditions: Postemergence
Outline: (§2)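 Visual rating, 0–100 scale (0 = no effect, 100 = complete control), versus untreated controls 13 to 15 days after treatment in greenhouse. Preemergence: seeds in loam/sand soil. Postemergence: 2 to 18 cm plants, 1- to 4-leaf stage, peat-based medium. Compounds formulated in non-phytotoxic solvent plus surfactant.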

[5] = system: yellow nutsedge (Cyperus esculentus); assay: Test D pre-/postemergence plant response; conditions: Postemergence
Outline: as §2

[6] = system: oilseed rape (Brassica napus); assay: Test D pre-/postemergence plant response; conditions: Postemergence
Outline: as §2

[7] = system: giant foxtail (Setaria faberii); assay: Test D pre-/postemergence plant response; conditions: Postemergence; for Plant response rating, Foxtail, Giant: scale 0 to 100, 0 no effect, 100 complete control
Outline: as §2

[8] = system: pigweed (Amaranthus retroflexus); assay: Test D pre-/postemergence plant response; conditions: Postemergence
Outline: as §2

[9] = system: galium (catchweed bedstraw, Galium aparine); assay: Test D pre-/postemergence plant response; conditions: Postemergence; for Plant response rating, Galium: scale 0 to 100, 0 no effect, 100 complete control
Outline: as §2

[10] = system: corn (Zea mays); assay: Test D pre-/postemergence plant response; conditions: Postemergence; for Plant response rating, Corn: scale 0 to 100, 0 no effect, 100 complete control
Outline: as §2

[11] = system: large (Lg) crabgrass (Digitaria sanguinalis); assay: Test D pre-/postemergence plant response; conditions: Postemergence; for Plant response rating, Crabgrass, Large: scale 0 to 100, 0 no effect, 100 complete control
Outline: as §2

[12] = system: blackgrass (Alopecurus myosuroides); assay: Test D pre-/postemergence plant response; conditions: Postemergence; for Plant response rating, Blackgrass: scale 0 to 100, 0 no effect, 100 complete control
Outline: as §2

[13] = system: ragweed (common ragweed, Ambrosia elatior); assay: Test D pre-/postemergence plant response; conditions: Postemergence
Outline: as §2

[14] = system: barnyardgrass (Echinochloa crus-galli); assay: Test D pre-/postemergence plant response; conditions: Postemergence; for Plant response rating, Barnyardgrass: scale 0 to 100, 0 no effect, 100 complete control
Outline: as §2

[15] = 31 g ai/ha, Preemergence, 0 to 100 scale where 0 is no effect and 100 is complete control
[16] = 125 g ai/ha, postemergence, 0 to 100 scale, 0 no effect, 100 complete control
[17] = Postemergence, 31 g ai/ha, 0 to 100 scale (0 no effect, 100 complete control)
[18] = Preemergence, 125 g ai/ha, 0 to 100 scale (0 no effect, 100 complete control)
[19] = 31 g ai/ha, scale 0 to 100 (0 no effect, 100 complete control)
[20] = 62 g ai/ha, scale 0 to 100, 0 no effect, 100 complete control
[21] = 125 g ai/ha, scale 0 to 100, 0 no effect, 100 complete control

Structure (SMILES): CC(F)(F)c1cc(-c2ccccc2Oc2ncc(Cl)cn2)on1 [Compound 178]
- Plant response rating, Ryegrass, Italian [1, 15]: 0
- Plant response rating, Ryegrass, Italian [1, 16]: 30
- Plant response rating, Ryegrass, Italian [1, 17]: 0
- Ryegrass, Italian plant response rating [1, 18]: 10
- Plant response rating, Kochia [2, 15]: 10
- Plant response rating, Kochia [2, 16]: 100
- Plant response rating, Kochia [2, 17]: 80
- Kochia plant response rating [2, 18]: 20
- Plant response rating, Ragweed [3, 15]: 0
- Plant response rating, Ragweed [3, 16]: 10
- Plant response rating, Ragweed [3, 17]: 10
- Ragweed plant response rating [3, 18]: 0
- Plant response rating (scale 0 to 100), Ryegrass, Italian ([4]; 16 g ai/ha): 0
- Ryegrass, Italian plant response rating [4, 19]: 0
- Ryegrass, Italian plant response rating [4, 20]: 5
- Plant response rating, Ryegrass, Italian [4, 21]: 5
- Plant response rating (scale 0 to 100), Nutsedge, Yellow ([5]; 16 g ai/ha): 5
- Nutsedge, Yellow plant response rating [5, 19]: 5
- Nutsedge, Yellow plant response rating [5, 20]: 10
- Plant response rating, Nutsedge, Yellow [5, 21]: 5
- Plant response rating (scale 0 to 100), Oilseed Rape ([6]; 16 g ai/ha): 35
- Oilseed Rape plant response rating [6, 19]: 80
- Oilseed Rape plant response rating [6, 20]: 80
- Plant response rating, Oilseed Rape [6, 21]: 95
- Plant response rating (scale 0 to 100), Foxtail, Giant ([7]; 16 g ai/ha): 0
- Foxtail, Giant plant response rating [7, 19]: 5
- Plant response rating, Foxtail, Giant ([7]; 62 g ai/ha): 5
- Plant response rating, Foxtail, Giant ([7]; 125 g ai/ha): 25
- Plant response rating (scale 0 to 100), Pigweed ([8]; 16 g ai/ha): 80
- Pigweed plant response rating [8, 19]: 85
- Pigweed plant response rating [8, 20]: 85
- Plant response rating, Pigweed [8, 21]: 90
- Plant response rating (scale 0 to 100), Galium ([9]; 16 g ai/ha): 75
- Galium plant response rating [9, 19]: 80
- Plant response rating, Galium ([9]; 62 g ai/ha): 98
- Plant response rating, Galium ([9]; 125 g ai/ha): 85
- Plant response rating (scale 0 to 100), Corn ([10]; 16 g ai/ha): 0
- Corn plant response rating [10, 19]: 5
- Plant response rating, Corn ([10]; 62 g ai/ha): 5
- Plant response rating, Corn ([10]; 125 g ai/ha): 10
- Plant response rating (scale 0 to 100), Crabgrass, Large ([11]; 16 g ai/ha): 5
- Crabgrass, Large plant response rating [11, 19]: 10
- Plant response rating, Crabgrass, Large ([11]; 62 g ai/ha): 20
- Plant response rating, Crabgrass, Large ([11]; 125 g ai/ha): 15
- Plant response rating (scale 0 to 100), Blackgrass ([12]; 16 g ai/ha): 0
- Blackgrass plant response rating [12, 19]: 5
- Plant response rating, Blackgrass ([12]; 62 g ai/ha): 10
- Plant response rating, Blackgrass ([12]; 125 g ai/ha): 15
- Plant response rating (scale 0 to 100), Ragweed ([13]; 16 g ai/ha): 5
- Ragweed plant response rating [13, 19]: 5
- Ragweed plant response rating [13, 20]: 20
- Plant response rating, Ragweed [13, 21]: 35
- Plant response rating (scale 0 to 100), Barnyardgrass ([14]; 16 g ai/ha): 10
- Barnyardgrass plant response rating [14, 19]: 15
- Plant response rating, Barnyardgrass ([14]; 62 g ai/ha): 10
- Plant response rating, Barnyardgrass ([14]; 125 g ai/ha): 20

— patent US10131652B2, “Pyrimidinyloxy benzene derivatives as herbicides” (E. I. DU PONT DE NEMOURS AND COMPANY, priority 2014, dated 2018)
